{
  "source": "BindingDB's records for doi:10.1016/j.ejmech.2019.05.027",
  "about": "(Central University of Punjab, 2019)",
  "key": {"[1]": {"assay": "Inhibition of P-gp in HEK293/ABCB1 cells assessed as potentiation of cisplatin-induced cytotoxicity by measuring cisplatin IC50 at 2 uM incubated for 48 hrs by MTT assay (Rvb = 8.08 uM)"}, "[2]": {"biological_target": "T1, ATP-dependent translocase ABCB1 (Homo sapiens, UniProt P08183)", "T1 sequence (P08183 whole entry)": "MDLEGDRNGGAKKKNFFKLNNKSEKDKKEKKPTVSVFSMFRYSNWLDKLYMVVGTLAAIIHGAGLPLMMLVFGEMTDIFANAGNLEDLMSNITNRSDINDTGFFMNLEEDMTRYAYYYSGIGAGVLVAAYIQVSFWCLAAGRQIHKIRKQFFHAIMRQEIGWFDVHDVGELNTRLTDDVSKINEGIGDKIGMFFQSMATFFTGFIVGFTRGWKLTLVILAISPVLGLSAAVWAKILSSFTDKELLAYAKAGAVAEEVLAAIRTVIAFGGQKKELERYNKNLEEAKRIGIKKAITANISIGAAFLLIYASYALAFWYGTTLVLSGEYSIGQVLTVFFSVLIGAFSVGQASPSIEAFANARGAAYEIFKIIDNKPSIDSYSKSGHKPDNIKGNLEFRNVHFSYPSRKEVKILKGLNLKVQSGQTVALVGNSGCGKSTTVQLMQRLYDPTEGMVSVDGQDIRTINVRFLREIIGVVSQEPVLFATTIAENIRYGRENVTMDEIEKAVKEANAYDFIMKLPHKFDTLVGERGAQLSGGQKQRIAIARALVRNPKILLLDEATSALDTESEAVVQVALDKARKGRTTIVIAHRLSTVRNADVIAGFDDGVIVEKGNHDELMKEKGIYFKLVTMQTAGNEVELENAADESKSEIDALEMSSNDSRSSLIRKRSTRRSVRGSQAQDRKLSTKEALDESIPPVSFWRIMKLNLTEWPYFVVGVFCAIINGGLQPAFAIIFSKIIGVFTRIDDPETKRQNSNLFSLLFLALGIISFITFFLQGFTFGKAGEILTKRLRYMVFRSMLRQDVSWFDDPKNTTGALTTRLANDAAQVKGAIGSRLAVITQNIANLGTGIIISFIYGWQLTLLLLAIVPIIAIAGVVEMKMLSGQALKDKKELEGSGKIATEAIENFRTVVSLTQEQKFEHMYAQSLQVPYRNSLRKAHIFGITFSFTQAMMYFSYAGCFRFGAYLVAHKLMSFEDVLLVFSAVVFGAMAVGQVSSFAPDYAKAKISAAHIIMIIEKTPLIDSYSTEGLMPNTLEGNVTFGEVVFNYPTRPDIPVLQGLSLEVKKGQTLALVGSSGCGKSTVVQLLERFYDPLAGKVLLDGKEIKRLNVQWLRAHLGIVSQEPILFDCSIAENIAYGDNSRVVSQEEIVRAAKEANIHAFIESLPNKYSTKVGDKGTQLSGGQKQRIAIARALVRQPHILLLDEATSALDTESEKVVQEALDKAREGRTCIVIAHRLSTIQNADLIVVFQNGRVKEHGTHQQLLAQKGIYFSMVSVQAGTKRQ", "assay": "Inhibition of P-gp in HEK293/ABCB1 cells assessed as potentiation of doxorubicin-induced cytotoxicity by measuring doxorubicin IC50 at 1 uM incubated for 48 hrs by MTT assay (Rvb = 8.08 uM)"}, "[3]": {"biological_target": "T1, ATP-dependent translocase ABCB1", "assay": "Inhibition of P-gp in human Caco2 cells assessed as potentiation of doxorubicin-induced cytotoxicity by measuring reduction in doxorubicin IC50 at 2.2 uM incubated for 24 hrs by MTT assay"}, "[4]": {"biological_target": "T1, ATP-dependent translocase ABCB1", "assay": "Inhibition of P-gp in human NCI-H460/R cells assessed as potentiation of doxorubicin-induced cytotoxicity by measuring reduction in doxorubicin IC50 at 0.1 to 2.5 uM incubated for 72 hrs by MTT assay"}},
  "note": "Residues, ends and D or L forms follow the SMILES beside them.",
  "data": [
    {"molecule": "CCOc1cc(O)cc2c1C[C@@H](OC(=O)c1cc(OCC)c(OCC)c(OCC)c1)[C@@H](c1cc(O)c(OCC)c(OCC)c1)O2", "values": [
      {"measurement": "IC50", "setting": "[1]", "value": 920, "unit": "nM"},
      {"measurement": "IC50", "setting": "[2]", "value": 620, "unit": "nM"}
    ]},
    {"molecule": "CC1(C)O[C@H]2CC(=O)OC[C@]23[C@H]2CC[C@@]4(C)[C@H](c5ccoc5)OC(=O)[C@H]5O[C@]54[C@]2(C)C(=O)C[C@@H]13", "note": "[Limonin]", "values": [
      {"measurement": "IC50", "setting": "[3]", "value": 19100, "unit": "nM"}
    ]},
    {"molecule": "CC(C)[C@H](NC(=O)[C@H](CO)NC(=O)[C@@H](N)Cc1ccc(O)cc1)C(=O)O", "note": "(H-Tyr-Ser-Val-OH)", "values": [
      {"measurement": "IC50", "setting": "[4]", "value": 700, "unit": "nM"}
    ]}
  ]
}
